According to US9012433B2, “Substituted tetracycline compounds” (Paratek Pharmaceuticals, Inc., priority 2006, dated 2015):
Values after ≈ are worked out from the molar mass of the structure shown. Like-named read-outs stand apart in the source and are kept apart here.

Assays:
Assay type in all cases: cell-based
[1] = test system: B. thetaiotaomicron ATCC 29741; test: Antibacterial MIC, CLSI broth microdilution; conditions: Bacteroides thetaiotaomicron
Description: (§1) Grain (−) and gram (+) antibacterial minimum inhibitory concentration (MIC) values (μg/mL) were obtained using CLSI methodology for anti-bacterial susceptibility testing. On each day of testing, serial dilutions of compounds were prepared in microdilution plates using a Tecan robotic workstation. Mueller Hinton broth cultures of representative sensitive and resistant gram negative strains were grown or adjusted to match the turbidity of a 0.5 McFarland standard. 1:200 dilutions were made in an appropriate broth (cation supplemented Mueller Hinton broth) to allow a final inoculum of 1×10^5 cfu. Plates were incubated at 35° C. in ambient air for 18-24 hours, were read spectrophotometrically and checked manually for evidence of bacterial growth. The lowest dilution of compound that inhibited growth was recorded as the MIC. Lysed horse blood was used to supplement broth for testing S. pneumoniae. The MIC's for each compound were assessed against S. aureus, S. pneumoniae, P. acnes, E. coli and B. theta.

E. coli ATCC 25922 = test: Antibacterial MIC, CLSI broth microdilution; conditions: Escherichia coli, ATCC25922; 35° C., 18-24 hours
Description: as §1

E. coli MG 1655 = test: Antibacterial MIC, CLSI broth microdilution; conditions: Escherichia coli, MG1655; 35° C., 18-24 hours
Description: as §1

P. acnes ATCC 11827 = test: Antibacterial MIC, CLSI broth microdilution; conditions: Cutibacterium acnes, ATCC11827; 35° C., 18-24 hours
Description: as §1

P. acnes ATCC 6919 = test: Antibacterial MIC, CLSI broth microdilution; conditions: Cutibacterium acnes, ATCC6919; 35° C., 18-24 hours
Description: as §1

S. aureus RN450 = test: Antibacterial MIC, CLSI broth microdilution; conditions: Staphylococcus aureus, RN450; 35° C., 18-24 hours
Description: as §1

[2] = test system: S. pneumoniae 157E - Strep; test: Antibacterial MIC, CLSI broth microdilution; conditions: Streptococcus pneumoniae, 157ESTREP; 35° C., 18-24 hours; lysed horse blood
Description: as §1

in vitro = test: in vitro
Description: Mammalian cell cytotoxicity was assessed to evaluate potential in vivo risks associated with the tetracycline compounds of the invention. A soluble, non-toxic redox dye (“Resazurin”; Alamar Blue) was used to assess a tetracycline compound's effect on cellular metabolism. At the onset of the experiment, cultures of mammalian COS-1 or CHO cells were washed, trypsinized, and harvested. […] On the next day, serial dilutions of test drug were prepared under sterile conditions and transferred to cell plates. Plates were then incubated under the above conditions for 24 hours. Following the incubation period, the media/drug was aspirated, and 50 μL of resazurin was added. Plates were then incubated under the above conditions for 2 hours and then in the dark at room temperature for an additional 30 minutes. Fluorescence measurements were taken (excitation 535 nm, emission 590 nm) and toxic effects in treated versus control cells were compared based on the degree of fluorescence in each well.

[3] = ATCC29741, 35° C., 18-24 hours, read-out: MIC B. thetaiotaomicron ATCC 29741

SMILES | MIC [1, 3] [µg/mL] | MIC (E. coli ATCC 25922) [µg/mL] | MIC (E. coli MG 1655) [µg/mL] | MIC (P. acnes ATCC 11827) [µg/mL] | MIC (P. acnes ATCC 6919) [µg/mL] | MIC (S. aureus RN450) [µg/mL] | MIC [2] [µg/mL] | IC50 at 24 h (in vitro; African green monkey) [µg/mL] | IC50 at 24 h (in vitro; Chinese hamster) [µg/mL] | MIC ([1]; ATCC29741, read-out: MIC B. thetaiotaomicron ATCC 29741) [µg/mL]
C=CCN(Cc1ccc(O)c2c1C[C@H]1C[C@H]3[C@H](N(C)C)C(O)=C(C(N)=O)C(=O)[C@@]3(O)C(O)=C1C2=O)C(=O)OC [F] | 4 to 8 (≈ 7.39 to 14.8 µM) | > 8 | > 8 | < 4 | < 4 | < 4 | < 4 | < 35 | < 35 | –
CON(C)Cc1ccc2c(c1O)C(=O)C1=C(O)[C@]3(O)C(=O)C(C(N)=O)=C(O)[C@@H](N(C)C)[C@@H]3C[C@@H]1C2 [GL] | – | > 8 | > 8 | 4 to 8 (≈ 8.2 to 16.4 µM) | 4 to 8 (≈ 8.2 to 16.4 µM) | 4 to 8 (≈ 8.2 to 16.4 µM) | 4 to 8 (≈ 8.2 to 16.4 µM) | 35 to 75 (≈ 71.8 to 154 µM) | 35 to 75 (≈ 71.8 to 154 µM) | 4 to 8 (≈ 8.2 to 16.4 µM)
CCONCc1ccc2c(c1O)C(=O)C1=C(O)[C@]3(O)C(=O)C(C(N)=O)=C(O)[C@@H](N(C)C)[C@@H]3C[C@@H]1C2 [GM] | 4 to 8 (≈ 8.2 to 16.4 µM) | > 8 | > 8 | 4 to 8 (≈ 8.2 to 16.4 µM) | < 4 | < 4 | < 4 | < 35 | < 35 | –
CC1CCN(Cc2cccc3c2C[C@H]2C[C@H]4[C@@H](N(C)C)C(O)=C(C(N)=O)C(=O)[C@@]4(O)C(O)=C2C3=O)CC1 [G] | > 8 | 4 to 8 (≈ 7.85 to 15.7 µM) | > 8 | 4 to 8 (≈ 7.85 to 15.7 µM) | 4 to 8 (≈ 7.85 to 15.7 µM) | < 4 | < 4 | > 75 | > 75 | –
CN(C)[C@H]1C(O)=C(C(N)=O)C(=O)[C@@]2(O)C(O)=C3C(=O)c4cccc(-c5ncccn5)c4C[C@H]3C[C@@H]12 [H] | > 8 | > 8 | > 8 | 4 to 8 (≈ 8.39 to 16.8 µM) | 4 to 8 (≈ 8.39 to 16.8 µM) | < 4 | < 4 | > 75 | > 75 | –
CN(C)[C@@H]1C(O)=C(C(N)=O)C(=O)[C@@]2(O)C(O)=C3C(=O)c4c(O)ccc(-c5ncco5)c4C[C@H]3C[C@@H]12 [J] | < 4 | < 4 | < 4 | < 4 | < 4 | < 4 | < 4 | < 35 | < 35 | –
CN(C)[C@@H]1C(O)=C(C(N)=O)C(=O)[C@@]2(O)C(O)=C3C(=O)c4c(O)ccc(-c5cnoc5)c4C[C@H]3C[C@@H]12 [K] | < 4 | < 4 | < 4 | < 4 | < 4 | < 4 | < 4 | < 35 | < 35 | –
CN(C)[C@@H]1C(O)=C(C(N)=O)C(=O)[C@@]2(O)C(O)=C3C(=O)c4c(O)ccc(-c5nccs5)c4C[C@H]3C[C@@H]12 [L] | < 4 | < 4 | < 4 | < 4 | < 4 | < 4 | < 4 | < 35 | < 35 | –
CCO/N=C(\C)c1cc(N)c(O)c2c1C[C@H]1C[C@H]3[C@H](N(C)C)C(O)=C(C(N)=O)C(=O)[C@@]3(O)C(O)=C1C2=O [M] | 4 to 8 (≈ 7.77 to 15.5 µM) | < 4 | 4 to 8 (≈ 7.77 to 15.5 µM) | < 4 | < 4 | < 4 | < 4 | > 75 | > 75 | –
CCO/N=C(\C)c1cc(CNCC(C)(C)C)c(O)c2c1C[C@H]1C[C@H]3[C@H](N(C)C)C(O)=C(C(N)=O)C(=O)[C@@]3(O)C(O)=C1C2=O [N] | < 4 | < 4 | 4 to 8 (≈ 6.68 to 13.4 µM) | < 4 | < 4 | < 4 | < 4 | > 75 | > 75 | –
CN(C)CC/C(=N\OC(C)(C)C)c1ccc(O)c2c1C[C@H]1C[C@H]3[C@H](N(C)C)C(O)=C(C(N)=O)C(=O)[C@@]3(O)C(O)=C1C2=O [O] | < 4 | < 4 | < 4 | < 4 | < 4 | < 4 | < 4 | 35 to 75 (≈ 59.9 to 128 µM) | < 35 | –
C/C(=N\OC(C)(C)C)c1cc(N)c(O)c2c1C[C@H]1C[C@H]3[C@@H](N(C)C)C(O)=C(C(N)=O)C(=O)[C@@]3(O)C(O)=C1C2=O [R] | 4 to 8 (≈ 7.37 to 14.7 µM) | > 8 | > 8 | < 4 | < 4 | < 4 | < 4 | < 35 | < 35 | –
CN(C)[C@@H]1C(O)=C(C(N)=O)C(=O)[C@@]2(O)C(O)=C3C(=O)c4cccc(-c5ncccn5)c4C[C@H]3C[C@@H]12 [S] | > 8 | > 8 | > 8 | 4 to 8 (≈ 8.39 to 16.8 µM) | 4 to 8 (≈ 8.39 to 16.8 µM) | < 4 | < 4 | > 75 | > 75 | –
CN(C)[C@@H]1C(O)=C(C(N)=O)C(=O)[C@@]2(O)C(O)=C3C(=O)c4c(O)ccc(-c5ccc[nH]5)c4C[C@H]3C[C@@H]12 [T, (4S,4aS,5aR,12aS)-4-Dimethylamino-3,10,12,12a-tetrahydroxy-1,11-dioxo-7-(1H-pyrrol-2-yl)-1,4,4a,5,5a,6,11,12a-octahydro-naphthacene-2-carboxylic acid amide] | 4 to 8 (≈ 8.34 to 16.7 µM) | < 4 | < 4 | < 4 | < 4 | < 4 | < 4 | < 35 | < 35 | –
CN(C)[C@@H]1C(O)=C(C(N)=O)C(=O)[C@@]2(O)C(O)=C3C(=O)c4c(O)ccc(CN5CCCO5)c4C[C@H]3C[C@@H]12 [U] | 4 to 8 (≈ 8.01 to 16 µM) | < 4 | 4 to 8 (≈ 8.01 to 16 µM) | < 4 | < 4 | < 4 | < 4 | > 75 | 35 to 75 (≈ 70.1 to 150 µM) | –
CN(C)[C@@H]1C(O)=C(C(N)=O)C(=O)[C@@]2(O)C(O)=C3C(=O)c4c(O)ccc(/C=N/NC(C)(C)C)c4C[C@H]3C[C@@H]12 [X] | < 4 | < 4 | < 4 | < 4 | < 4 | < 4 | < 4 | < 35 | < 35 | –
